For test [1], the target named is T1, Potassium voltage-gated channel subfamily B member 1 (Homo sapiens) (UniProt Q14721).
T1 sequence (whole entry): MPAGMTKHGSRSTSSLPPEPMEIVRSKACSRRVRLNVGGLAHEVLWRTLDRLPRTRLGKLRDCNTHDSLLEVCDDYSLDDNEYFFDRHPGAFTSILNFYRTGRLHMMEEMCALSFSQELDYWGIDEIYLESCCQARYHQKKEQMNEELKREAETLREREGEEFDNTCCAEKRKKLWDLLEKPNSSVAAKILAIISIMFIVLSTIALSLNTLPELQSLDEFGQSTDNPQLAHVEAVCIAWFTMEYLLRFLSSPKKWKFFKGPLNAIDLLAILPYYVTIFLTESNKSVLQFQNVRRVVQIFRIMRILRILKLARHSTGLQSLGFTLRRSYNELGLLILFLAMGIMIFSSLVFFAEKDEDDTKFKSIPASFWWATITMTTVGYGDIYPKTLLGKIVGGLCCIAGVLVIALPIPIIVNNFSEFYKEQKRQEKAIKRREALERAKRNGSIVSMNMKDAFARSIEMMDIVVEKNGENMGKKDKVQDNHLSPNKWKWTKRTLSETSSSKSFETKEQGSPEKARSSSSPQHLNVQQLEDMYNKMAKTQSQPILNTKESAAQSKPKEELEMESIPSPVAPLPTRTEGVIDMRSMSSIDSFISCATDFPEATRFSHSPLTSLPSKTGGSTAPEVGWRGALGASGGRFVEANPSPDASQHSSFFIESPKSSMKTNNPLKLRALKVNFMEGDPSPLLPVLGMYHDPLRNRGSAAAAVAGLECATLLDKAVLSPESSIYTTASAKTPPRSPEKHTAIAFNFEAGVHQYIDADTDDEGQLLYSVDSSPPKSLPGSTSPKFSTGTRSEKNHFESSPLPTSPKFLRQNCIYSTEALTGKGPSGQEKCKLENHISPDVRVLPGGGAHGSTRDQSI
Nature of the test: (§1) Inhibition of Kv2.1 channel in […] INS1 cells assessed as inhibition of outward K+ current by electrophysiology/patch clamp technique. Type of test: cell-based. Background: The patch-clamp technique gives a direct electrical read-out from membranes.

The target of test [2] is T2, Potassium voltage-gated channel subfamily B member 1 (Homo sapiens, UniProt Q14721).
T2 sequence (Q14721 whole entry): T1 sequence (whole entry)
The description is as §1. Type of test: cell-based.

SMILES strings stand for the structures. The source made the active and inactive calls. The rule behind the calls is not given here.

For the compound `COc1cccc(OC)c1C(=O)c1c(O)cc(C)c(OC)c1COC(C)=O`, the inhibition result in test [1] was “inactive”. For the compound `COc1cccc(OC)c1C(=O)c1c(O)cc(C)c(OC)c1C1=C(c2c(OC)cccc2OC)c2c(O)cc(C)c(OC)c2C1=O`, the IC50 (usually the concentration that gives 50% inhibition) in test [2] came to 0.59 µM. The same measure, in the same setting: under `COc1cccc(OC)c1C(=O)c1c(O)cc(C)c(OC)c1CC(=O)c1c(OC)c(C)cc(O)c1C(=O)c1c(OC)cccc1OC` stands 1 µM.
